Experiments:
[1] = target: T1, TRKA-wt kinase domain (Homo sapiens, UniProt P04629); experiment: Biochemical kinase assay, TRKA-wt; settings: 2 mM ATP substrate solution, read-out: Ki^app TRKA-wt
T1 construct: TRKA-wt (1 nM, BPS Bio, 40280) kinase domains in buffer; purchased BPS Bio 40280
Outline: (§1)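 Compound in DMSO added first, then substrate solution (ATP 2 mM; AQT0101 or AQT0104, 26 μM; pH 7.5 HEPES, 10 mM MgCl2), then kinase solution with enzyme at 0.5–3 nM depending on construct. Kinetic read every 2 min for 120 min at 30° C; Ki^app by Morrison regression.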

[2] = target: T2, ALK L1196M/G1202R kinase domain (Homo sapiens, UniProt Q9UM73, G1202R/L1196M); experiment: Biochemical kinase assay, ALK L1196M/G1202R; settings: 2 mM ATP substrate solution, read-out: Ki^app ALK-L1196M-G1202R
T2 construct: TRKA-wt (1 nM, BPS Bio, 40280) kinase domains in buffer; purchased SignalChem A19-12NG
Outline: as §1

[3] = target: T3, ALK-wt kinase domain (Homo sapiens, UniProt Q9UM73); experiment: Biochemical kinase assay, ALK-wt; settings: 2 mM ATP substrate solution, read-out: Ki^app ALK-wt
T3 construct: TRKA-wt (1 nM, BPS Bio, 40280) kinase domains in buffer; purchased Carna 08-518
Outline: as §1

[4] = target: T4, ROS1-wt kinase domain (Homo sapiens, UniProt P08922); experiment: Biochemical kinase assay, ROS1-wt; settings: 2 mM ATP substrate solution, read-out: Ki^app ROS1-wt
T4 construct: TRKA-wt (1 nM, BPS Bio, 40280) kinase domains in buffer; purchased Carna 08-163
Outline: as §1

[5] = target: T5, ROS1-G2032R kinase domain (Homo sapiens, UniProt P08922, G2032R); experiment: Biochemical kinase assay, ROS1-G2032R; settings: 2 mM ATP substrate solution, read-out: Ki^app ROS1-G2032R
T5 construct: TRKA-wt (1 nM, BPS Bio, 40280) kinase domains in buffer; purchased SignalChem R14-12BG
Outline: as §1

Structure (SMILES)	Ki [1]	Ki [2]	Ki [3]	Ki [4]	Ki [5]
CCn1nnc2c1-c1cnc(N)c(c1)O[C@H](C)c1cc(F)ccc1-c1sncc1C2 [Compound 93]	50 to 500 nM	< 50 nM	< 50 nM	< 50 nM	< 50 nM
C[C@H]1Oc2cc(cnc2N)-c2c(C#N)nn(C)c2Cc2scnc2-c2ccc(F)cc21 [Compound 94]	50 to 500 nM	< 50 nM	< 50 nM	< 50 nM	< 50 nM
CCn1ncc2c1-c1cnc(N)c(c1)O[C@H](C)c1cc(F)ccc1-n1nc(C(F)F)cc1C2 [Compound 102]	< 50 nM	< 50 nM	< 50 nM	< 50 nM	< 50 nM
C[C@H]1Oc2cc(cnc2N)-c2c(C#N)nn(C)c2Cc2cc(Cl)nn2-c2ccc(F)cc21 [Compound 103]	50 to 500 nM	< 50 nM	< 50 nM	< 50 nM	< 50 nM
C[C@H]1Oc2cc(cnc2N)-c2c(C#N)nn(C)c2Cc2cc(C(F)(F)F)nn2-c2ccc(F)cc21 [Compound 104]	> 500 nM	< 50 nM	< 50 nM	< 50 nM	< 50 nM
C[C@H]1Oc2cc(cnc2N)-c2c(C#N)nn(C)c2Cc2cc(F)cnc2-c2ccc(F)cc21 [Compound 105]	> 500 nM	< 50 nM	< 50 nM	< 50 nM	< 50 nM
C[C@H]1Oc2cc(cnc2N)-c2c(nnn2CC2CC2)Cc2cc(F)cnc2-c2ccc(F)cc21 [Compound 106]	50 to 500 nM	< 50 nM	< 50 nM	< 50 nM	< 50 nM
CCn1nnc2c1-c1cnc(N)c(c1)O[C@H](C)c1cc(F)ccc1-n1nc(C(F)(F)F)cc1C2 [Compound 107]	50 to 500 nM	< 50 nM	< 50 nM	< 50 nM	< 50 nM
C[C@H]1Oc2cc(cnc2N)-c2c(nn(C)c2C#N)Cc2cn(C)nc2-c2ccc(F)cc21 [Compound 111]	50 to 500 nM	< 50 nM	< 50 nM	< 50 nM	< 50 nM
C[C@H]1Oc2cc(cnc2N)-c2c(nn(C)c2C#N)Cc2cccnc2-c2ccc(F)cc21 [Compound 112]	50 to 500 nM	< 50 nM	< 50 nM	< 50 nM	< 50 nM
Cc1nc2c(s1)Cc1nnn(CC3CC3)c1-c1cnc(N)c(c1)O[C@H](C)c1cc(F)ccc1-2 [Compound 114]	50 to 500 nM	< 50 nM	< 50 nM	< 50 nM	< 50 nM

The next lines start with the values.

Ki [1]	Ki [2]	Ki [3]	Ki [4]	Ki [5]	Structure (SMILES)
< 50 nM	< 50 nM	< 50 nM	< 50 nM	< 50 nM	CCn1ncc2c1-c1cnc(N)c(c1)O[C@H](C)c1cc(F)ccc1-n1nc(OC)cc1C2 [Compound 98]
50 to 500 nM	< 50 nM	< 50 nM	< 50 nM	< 50 nM	CCn1ncc2c1-c1cnc(N)c(c1)O[C@H](C)c1cc(F)ccc1-c1nocc1C2 [Compound 99]
50 to 500 nM	< 50 nM	< 50 nM	< 50 nM	< 50 nM	C[C@H]1Oc2cc(cnc2N)-c2c(C#N)nn(C)c2Cc2cccnc2-c2ccc(F)cc21 [Compound 100]
50 to 500 nM	< 50 nM	< 50 nM	< 50 nM	< 50 nM	C[C@H]1Oc2cc(cnc2N)-c2c(nnn2CC2CC2)Cc2cc(Cl)nn2-c2ccc(F)cc21 [Compound 108]
< 50 nM	< 50 nM	< 50 nM	< 50 nM	< 50 nM	Cc1cc2n(n1)-c1ccc(F)cc1[C@@H](C)Oc1cc(cnc1N)-c1c(cnn1CC1CC1)C2 [Compound 109]
> 500 nM	< 50 nM	< 50 nM	< 50 nM	< 50 nM	Nc1ncc2cc1OCc1cc(F)ccc1-n1nc(Cl)cc1Cc1nnn(CC3CC3)c1-2 [Compound 110]
